From patent US20050222259A1, “Methods of activating PPAR-alpha nuclear receptors in mammals” (priority 2004, published 2005)

Assay: oral application of conjugated fatty acids: appetite, satiety and food intake
Type: in vivo
Settings: for appetite-reducing effect compared with other CLA isomers and non-conjugated linoleic acid: comparison of isomers

Compound	effect on appetite, satiety and food intake (oral application)	appetite-reducing effect compared with other CLA isomers and non-conjugated linoleic acid	appetite-reducing effect compared with other CLA isomers and non-conjugated linoleic acid (listed as cis-9,trans-11 isomer of conjugated linoleic acid)
conjugated linoleic acid [CLA]	reduction of appetite	–	–
CCCCCC/C=C/C=C\CCCCCCCC(=O)O (single isomer, unassigned) [cis-9,trans-11 CLA-isomer, cis-9,trans-11 isomer of conjugated linoleic acid]	–	most efficacious in inhibiting appetite	more pronounced
